Data as given in paper PMC6154745 (Oncotarget, 2018).
Marks after values point to notes of the source that are not given here.

Columns and labels:
heart miRNAs = assay: miRNA expression (microarray), Study 3, heart; type: in vivo, ICR (CD-1) mice
Method: (§1) Each group was composed of 10 female mice.
(§2) The urine was collected for 8 h and pooled from the mice belonging to each experimental group in Study 3 by using metabolic cages during the day preceding euthanasia of mice. Immediately after sacrifice, a bronchoalveolar lavage (BAL) was performed and used for preparing BALF, and the blood was collected and used for preparing serum. BALF and blood serum were pooled within each experimental group. The organs reported in the general design of the studies were collected, as previously described. Immediately after collection, each organ or fluid was immersed in RNAlater and kept at -80°C for miRNA analysis. Portions of the organs used in Study 1 and Study 2 were stored at -80°C for evaluating DNA damage.
(§3) For evaluating the expression of pulmonary miRNAs we used the 7th generation miRCURY LNA™ microRNA Array (Exiqon), which contains 3,100 capture probes covering human, mouse and rat miRNAs. In particular, this array covers 1,135 mouse miRNAs, i.e. the 88.6% of the 1,281 mouse miRNAs listed in miRBase 19. Microarray analyses were carried out as previously described.
(§4) Treatment-related differences in body weights, in the frequency of MN NCE, and in the levels of pulmonary DNA adducts and 8-oxo-dGuo, all of them expressed as means ± SE within each group of mice, were evaluated for statistical significance by ANOVA followed by Student's t test for unpaired data. miRNA microarray data, after local background subtraction, log transformation, and normalization were analyzed by GeneSpring software (Agilent, Santa Clara, CA), and expression data were median centered by using the GeneSpring normalization option.

Body weight, Study 1 = type: in vivo, Swiss H mice; conditions: after 10 weeks
Text: (§5) Strain H neonatal mice, used in Study 1, were born at the Animal Laboratory of the National Center of Oncology (Sofia, Bulgaria). The mice were housed in Makrolon™ cages on sawdust bedding and maintained on standard rodent chow (Kostinbrod, Bulgaria) and allowed drinking water ad libitum. Swiss ICR (CD-1) mice, either neonatal (Study 2) or two- month old (Study 3), were purchased from Harlan Laboratories (San Pietro al Natisone, Udine, Italy). The mice were housed in Makrolon™ cages on sawdust bedding and maintained on standard rodent chow (Teklad 9607, Harlan Laboratories) and tap water ad libitum. The animal room temperature was 23 ± 2°C, with a relative humidity of 55% and a 12 h day-night cycle. Housing and treatments of mice were in accordance with NIH, European (2010/63 UE Directive), and institutional guidelines. The issuance of the NIH Office of Laboratory Animal Welfare (OLAW) with the University of Genoa bears the identification number A5899-01 and is effective until February 28, 2021. The Institutional Animal Care and Use Committee (IACUC) protocol was approved by the Fox Chase Cancer Center Committee on April 13, 2015.
(§6) In Study 1 and Study 2, feeding of the drug-containing diet started after weanling (about 4 weeks) and continued until the 10th week of life.
as §4

spleen miRNAs = assay: miRNA expression (microarray), Study 3, spleen; type: in vivo, ICR (CD-1) mice
Method: as §1, §2, §3, §4

lung miRNAs = assay: miRNA expression (microarray), Study 3, lung; type: in vivo, ICR (CD-1) mice
Method: as §1, §2, §3, §4

blood serum miRNAs = assay: Blood serum miRNAs (microarray), Study 1; type: in vivo, Swiss H mice
liver miRNAs = assay: miRNA expression (microarray), Study 3, liver; type: in vivo, ICR (CD-1) mice
Method: as §1, §2, §3, §4

lung DNA [1] = assay: Bulky DNA adducts by 32P postlabeling, Study 2, lung; type: in vivo, ICR (CD-1) mice
Method: (§7) DNA was extracted from tissue specimens (50 mg) collected individually from the lungs of 40 Swiss H mice used in Study 1 and from lungs, heart and liver of 80 ICR (CD-1) mice used in Study 2, as previously described. Bulky DNA adducts, after butanol enrichment, and 8-hydroxy-2’-deoxyguanosine (8-oxo-dGuo) were measured by ^32P postlabeling as previously described.

heart DNA = assay: Bulky DNA adducts by 32P postlabeling, Study 2, heart; type: in vivo, ICR (CD-1) mice; conditions: for Bulky DNA adducts: Heart; for decrease of DNA adduct levels vs MCS-exposed mice without celecoxib / increase of DNA adduct levels over sham-exposed mice: heart
Method: as §1, §7

lung DNA [2] = assay: 8-oxo-dGuo (oxidative DNA damage) in lung by 32P postlabeling, Study 1; type: in vivo, Swiss H mice; conditions: for 8-oxo-dGuo: lung
Method: as §1, §7

Body weight, Study 3 = type: in vivo, ICR (CD-1) mice; conditions: in g
Text: as §1, §5
Celecoxib was supplied by the US National Cancer Institute (NCI) via MRIGlobal (Kansas City, MO).
as §6, §4

stomach miRNAs = assay: miRNA expression (microarray), Study 3, stomach; type: in vivo, ICR (CD-1) mice
Method: as §1, §2, §3, §4

skeletal muscle miRNAs = assay: miRNA expression (microarray), Study 3, skeletal muscle; type: in vivo, ICR (CD-1) mice
Method: as §1, §2, §3, §4

[3] = low dose (20 mg/kg diet) vs sham

Cc1ccc(-c2cc(C(F)(F)F)nn2-c2ccc(S(N)(=O)=O)cc2)cc1 [Celecoxib, 4-[5-(4-methylphenyl)-3-(trifluoromethyl)-1H-pyrazol-1-yl] benzene-1-sulfonamide]
upregulated/downregulated miRNAs (heart miRNAs; MCS-exposed mice): 0/1
upregulated/downregulated miRNAs (heart miRNAs; MCS-free mice): 0/2
number of miRNAs modulated by celecoxib (heart miRNAs; high dose): 3
body weight (Body weight, Study 1; females, MCS-exposed mice given celecoxib): 26.7 ± 0.56 g
body weight (Body weight, Study 1; females): 27.8 ± 0.80 g
body weight (Body weight, Study 1; males, MCS-exposed mice given celecoxib): 34.6 ± 1.55 g
body weight (Body weight, Study 1; males): 37.2 ± 0.97 g
upregulated/downregulated miRNAs (spleen miRNAs; MCS-exposed mice): 1/7
miR-30c-2-5p downregulation (spleen miRNAs; MCS-free mice): 7 fold
upregulated/downregulated miRNAs (spleen miRNAs; MCS-free mice): 2/7
number of miRNAs modulated by celecoxib (spleen miRNAs; high dose): 17
miR-361 upregulation (lung miRNAs): 8 fold
upregulated/downregulated miRNAs (lung miRNAs; MCS-exposed mice): 0/1
upregulated/downregulated miRNAs (lung miRNAs; MCS-free mice): 14/0
number of miRNAs modulated by celecoxib (lung miRNAs; high dose): 15
number of miRNAs modulated (lung miRNAs; low dose): 3
miR-296 upregulation (lung miRNAs; [3]): 2.4 fold
miR-551b upregulation (lung miRNAs; [3]): 2.2 fold
miR185 downregulation (lung miRNAs; low dose (20 mg/kg diet), compared to MCS-exposed mice): 2.8 fold
number of blood miRNAs on which the effect of MCS was counteracted (blood serum miRNAs; MCS-exposed mice given celecoxib): 7
number of miRNAs significantly modulated in blood serum (blood serum miRNAs; vs sham-exposed mice, 2-fold variation and P < 0.05): 18
upregulated/downregulated miRNAs (liver miRNAs; MCS-exposed mice): 2/1
miR-30c-2-3p downregulation (liver miRNAs; MCS-free mice): 9 fold
miR-30e downregulation (liver miRNAs; MCS-free mice): 10 fold
miR-802-3p downregulation (liver miRNAs; MCS-free mice): 7 fold
upregulated/downregulated miRNAs (liver miRNAs; MCS-free mice): 0/15
number of miRNAs modulated by celecoxib (liver miRNAs; high dose): 18
Bulky DNA adducts (lung DNA [1]; F): 3.7 ± 0.31^c adducts/10^8 nucleotides
Bulky DNA adducts (lung DNA [1]; M): 4.4 ± 0.56^c adducts/10^8 nucleotides
Bulky DNA adducts (lung DNA [1]; M + F): 4.0 ± 0.31^c adducts/10^8 nucleotides
decrease of DNA adduct levels vs MCS-exposed mice without celecoxib (lung DNA [1]; combined genders): 1.6 fold
decrease of DNA adduct levels vs MCS-exposed mice without celecoxib (lung DNA [1]; males): 1.5 fold
decrease of DNA adduct levels vs MCS-exposed mice without celecoxib (lung DNA [1]; printed 'males' a second time): 1.7 fold
increase of DNA adduct levels over sham-exposed mice (lung DNA [1]; combined genders): 2.7 fold
increase of DNA adduct levels over sham-exposed mice (lung DNA [1]; females): 2.5 fold
increase of DNA adduct levels over sham-exposed mice (lung DNA [1]; males): 2.9 fold
autoradiographic spots formed (lung DNA [1]; smoke-free mice): 3
Bulky DNA adducts (heart DNA; F): 3.6 ± 0.37^c adducts/10^8 nucleotides
Bulky DNA adducts (heart DNA; M): 3.3 ± 0.18^c adducts/10^8 nucleotides
Bulky DNA adducts (heart DNA; M + F): 3.4 ± 0.17^c adducts/10^8 nucleotides
decrease of DNA adduct levels vs MCS-exposed mice without celecoxib (heart DNA; combined genders): 1.3 fold
decrease of DNA adduct levels vs MCS-exposed mice without celecoxib (heart DNA; females): 1.5 fold
decrease of DNA adduct levels vs MCS-exposed mice without celecoxib (heart DNA; males (not statistically significant)): 1.1 fold
increase of DNA adduct levels over sham-exposed mice (heart DNA; combined genders): 2.2 fold
increase of DNA adduct levels over sham-exposed mice (heart DNA; females): 2.4 fold
increase of DNA adduct levels over sham-exposed mice (heart DNA; males): 2.1 fold
8-oxo-dGuo (lung DNA [2]; F): 2.3 ± 0.28 8-oxo-dGuo/10^5 nucleotides
8-oxo-dGuo (lung DNA [2]; M): 1.6 ± 0.29 8-oxo-dGuo/10^5 nucleotides
8-oxo-dGuo (lung DNA [2]; M + F): 1.9 ± 0.22 8-oxo-dGuo/10^5 nucleotides
increase of pulmonary 8-oxo-dGuo levels vs sham-exposed mice (lung DNA [2]; mouse, in vivo): did not affect
body weight (Body weight, Study 3; females, MCS-exposed, high dose celecoxib): 26.7 ± 0.56
body weight (Body weight, Study 3; females, MCS-exposed, low dose celecoxib): 30.9 ± 1.24
body weight (Body weight, Study 3; females, smoke-free, high dose (1,600 mg/kg diet)): 31.5 ± 0.98
body weight (Body weight, Study 3; females, smoke-free, low dose (20 mg/kg diet)): 32.6 ± 1.82
body weight (Body weight, Study 3; males, smoke-free, high dose (1,600 mg/kg diet)): 42.1 ± 0.61
miR-125b downregulation (stomach miRNAs; MCS-exposed mice): 9 fold
miR-802-3p upregulation (stomach miRNAs; MCS-exposed mice): 3 fold
upregulated/downregulated miRNAs (stomach miRNAs; MCS-exposed mice): 3/3
miR-1964-5p downregulation (stomach miRNAs; MCS-free mice): 4 fold
upregulated/downregulated miRNAs (stomach miRNAs; MCS-free mice): 2/12
number of miRNAs modulated by celecoxib (stomach miRNAs; high dose): 20
miR-30e upregulation (skeletal muscle miRNAs; MCS-exposed mice): 9 fold
miR-125b downregulation (skeletal muscle miRNAs; MCS-exposed mice): 11 fold
miR-511 upregulation (skeletal muscle miRNAs; MCS-exposed mice): 5 fold
miR-695 downregulation (skeletal muscle miRNAs; MCS-exposed mice): 6 fold
miR-1964-5p downregulation (skeletal muscle miRNAs; MCS-exposed mice): 5 fold
upregulated/downregulated miRNAs (skeletal muscle miRNAs; MCS-exposed mice): 6/10
upregulated/downregulated miRNAs (skeletal muscle miRNAs; MCS-free mice): 0/0
number of miRNAs modulated by celecoxib (skeletal muscle miRNAs; high dose): 16
